This passage reports inhibition of growth, DC50 and Activity results from ChEMBL document CHEMBL3045353, “Identification of new limonoids from Swietenia and their biological activity against insects” (Pest Manag Sci, 2010).

Each structure is given as a SMILES string. ≈ marks a conversion by molar mass, not a printed value. Bounds are passed on as bounds.

The test system of one data set is Heliothis virescens. The experiment in a line: Growth inhibition of neonate larvae of Heliothis virescens (tobacco budworm) at 250 mg/l after 6 days relative to control. As to conditions: 144 h, read-out: GI. It counts as functional.
For a further data set, the system named is Helicoverpa zea. The data set is described as follows: Growth inhibition of neonate larvae of Helicoverpa zea (corn earworm)at 250 mg/l after 6 days relative to control. It counts as functional. The note with it: 144 h, read-out: GI.
In the next data set the test system is Manduca sexta. The data set is described as follows: Growth inhibition of neonate larvae of Manduca sexta at 250 mg/l after 6 days relative to control. The data set is classed as functional. As to conditions: 144 h, read-out: GI.
For data set [1], the system named is Spodoptera frugiperda. The experiment in a line: Antifeedant activity against fourth-instar larvae of Spodoptera frugiperda (fall armyworm) fed on compound treated savanna grass for 18 hr. It counts as functional, organism-based.
In data set [2] the test system is Spodoptera frugiperda. The experiment in a line: Phagostimulant activity in fourth-instar larvae of Spodoptera frugiperda (fall armyworm) fed on compound treated savanna grass for 18 hr. The data set is classed as ADME, organism-based. As to conditions: in vivo, po.

Consider `C/C=C(\C)OC(=O)[C@H]1C(C)(C)[C@H]([C@@H](O)C(=O)OC)[C@]2(C)C(=O)[C@@]1(O)C=C1[C@@H]3CC(=O)O[C@@H](c4ccoc4)[C@]3(C)CC[C@@H]12` [2-HYDROXYSWIETENINE], for which the inhibition of growth at 250 µg/mL turned out to be 62.6% with Heliothis virescens, 28.2% in the data set with Helicoverpa zea and 31.7% in the data set on Manduca sexta. For the same compound, the DC50 in the data set on Spodoptera frugiperda [1] amounted to 65.8 µg/mL (≈ 113 µM).
On to `COC(=O)[C@H](C(=O)Oc1ccccc1)[C@H]1C(C)(C)[C@H](C(=O)Oc2ccccc2)[C@@H]2C=C3[C@@H]4CC(=O)O[C@@H](c5ccoc5)[C@]4(C)CC[C@@H]3[C@@]1(C)C2=O` [3,6-O,O-DIBENZOYL-3-DETIGLOYLISOSWIETENINE], for which the results for the inhibition of growth at 250 µg/mL in the data set on Heliothis virescens, in the data set with Helicoverpa zea and in the data set on Manduca sexta were 18.6%, 49.2% and 25.7%, respectively. For the same compound, the Activity result in the data set with Spodoptera frugiperda [2] is listed as “Toxic”.
In the data set with Spodoptera frugiperda [1], `COC(=O)[C@H](C(=O)Oc1ccccc1)[C@H]1C(C)(C)[C@H](C(=O)Oc2ccccc2)[C@@H]2CC3=C4CC(=O)O[C@@H](c5ccoc5)[C@]4(C)CC[C@@H]3[C@@]1(C)C2=O` [3,6-O,O-DIBENZOYLSWIETENOLIDE] had a DC50 of 416 µg/mL (≈ 599 µM).
Consider `CCOC(=O)[C@@H](C(=O)OC)[C@H]1C(C)(C)[C@H](C(=O)OCC)[C@]2(O)C=C3[C@@H]4CC(=O)O[C@@H](c5ccoc5)[C@]4(C)CC[C@@H]3[C@@]1(C)C2=O` [3,6-O,O-DIPROPIONYL-3-DETIGLOYL-2-HYDROXYISOSWIETENINE], for which the values for the inhibition of growth at 250 µg/mL in the data set with Heliothis virescens, in the data set on Helicoverpa zea and with Manduca sexta were 17.5%, 32.7% and 15.8%, respectively. For the same compound, the DC50 in the data set on Spodoptera frugiperda [1] amounted to 159 µg/mL (≈ 259 µM).
For `COC(=O)[C@H](C(=O)Oc1ccccc1)[C@H]1C(C)(C)[C@H](C(=O)Oc2ccccc2)[C@]2(O)C=C3[C@@H]4CC(=O)O[C@@H](c5ccoc5)[C@]4(C)CC[C@@H]3[C@@]1(C)C2=O` [3,6-O,ODIBENZOYL-3-DETIGLOYL-2-HYDROXYISOSWIETENINE], the results for the inhibition of growth at 250 µg/mL in the data set on Heliothis virescens, in the data set with Helicoverpa zea and with Manduca sexta were 33.8%, 13.5% and 6.24%, respectively. Besides, the DC50 in the data set on Spodoptera frugiperda [1] turned out to be 233 µg/mL (≈ 328 µM).
Consider `COC(=O)[C@H](O)[C@H]1C(C)(C)[C@H](O)[C@]2(O)C=C3[C@@H]4CC(=O)O[C@@H](c5ccoc5)[C@]4(C)CC[C@@H]3[C@@]1(C)C2=O` [3-DETIGLOYL-2-HYDROXYISOSWIETENINE], for which the values for the inhibition of growth at 250 µg/mL in the data set with Heliothis virescens, in the data set on Helicoverpa zea and with Manduca sexta were 15.8%, 22.4% and 29.2%, respectively. For the same compound, the DC50 with Spodoptera frugiperda [1] is 188 µg/mL (≈ 374 µM).
On the same counts, the results for `COC(=O)C(O)[C@H]1C(C)(C)[C@@H](O)[C@@H]2C(=O)[C@]1(C)[C@H]1CC[C@]3(C)[C@@H](CC(=O)O[C@H]3c3ccoc3)[C@]13O[C@@H]23` (stereo partly specified) [3-DETIGLOYLISOSWIETEMAHONIN G] are 49.1%, 54.6%, 45.1% and 107 µg/mL (≈ 213 µM).
On the same counts, the results for `COC(=O)[C@H](O)[C@H]1C(C)(C)[C@H](O)[C@@H]2C=C3[C@@H]4CC(=O)O[C@@H](c5ccoc5)[C@]4(C)CC[C@@H]3[C@@]1(C)C2=O` [3-DETIGLOYLISOSWIETENINE] are 56%, 15.2%, 17.8% and 101 µg/mL (≈ 208 µM).
On the same counts, the results for `COC(=O)COC(=O)[C@@H]1[C@@H]2CC3=C4CC(=O)O[C@@H](c5ccoc5)[C@]4(C)CC[C@@H]3[C@@](C)(C2=O)[C@@H]([C@@H](O)C(=O)OC)C1(C)C` [3-O-ACETOXYACETYLSWIETENOLIDE] are 19%, 30.2%, 35.9% and 12.4 µg/mL (≈ 21.1 µM).
On to `COC(=O)[C@H](O)[C@H]1C(C)(C)[C@H](C(=O)Oc2ccccc2)[C@@H]2C=C3[C@@H]4CC(=O)O[C@@H](c5ccoc5)[C@]4(C)CC[C@@H]3[C@@]1(C)C2=O` [3-O-BENZOYL-3-DETIGLOYLISOSWIETENINE], for which the inhibition of growth at 250 µg/mL turned out to be 57.8% with Heliothis virescens, 27.1% in the data set with Helicoverpa zea and 8.18% in the data set on Manduca sexta. The same compound displayed a DC50 in the data set on Spodoptera frugiperda [1] of 254 µg/mL (≈ 430 µM).
In the data set on Spodoptera frugiperda [1], `COC(=O)[C@H](O)[C@H]1C(C)(C)[C@H](C(=O)Oc2ccccc2)[C@@H]2CC3=C4CC(=O)O[C@@H](c5ccoc5)[C@]4(C)CC[C@@H]3[C@@]1(C)C2=O` [3-O-BENZOYLSWIETENOLIDE] had a DC50 of 244 µg/mL (≈ 414 µM).
Take `COC(=O)[C@H](O)[C@H]1C(C)(C)[C@H](C(=O)OC(C)C)[C@@H]2CC3=C4CC(=O)O[C@@H](c5ccoc5)[C@]4(C)CC[C@@H]3[C@@]1(C)C2=O` [3-O-ISOBUTYRYLSWIETENOLIDE]: the inhibition of growth at 250 µg/mL in the data set with Heliothis virescens worked out at 35.1%; in the data set with Helicoverpa zea, 33.1%; in the data set with Manduca sexta, 45.9%. Besides, in the data set with Spodoptera frugiperda [1], the DC50 came to 0.009 µg/mL (≈ 0.0162 µM).
For `COC(=O)[C@H](O)[C@H]1C(C)(C)[C@H](C(=O)OCC(C)C)[C@@H]2CC3=C4CC(=O)O[C@@H](c5ccoc5)[C@]4(C)CC[C@@H]3[C@@]1(C)C2=O` [3-O-ISOVALERYLSWIETENOLIDE], the inhibition of growth at 250 µg/mL is 54.5% in the data set with Heliothis virescens, 26.2% in the data set on Helicoverpa zea and 23.7% in the data set with Manduca sexta. Further, the DC50 with Spodoptera frugiperda [1] turned out to be 0.19 µg/mL (≈ 0.333 µM).
`CCOC(=O)[C@@H]1[C@@H]2C=C3[C@@H]4CC(=O)O[C@@H](c5ccoc5)[C@]4(C)CC[C@@H]3[C@@](C)(C2=O)[C@@H]([C@@H](O)C(=O)OC)C1(C)C` [3-O-PROPIONYL-3-DETIGLOYLISOSWIETENINE]: the figures for the inhibition of growth at 250 µg/mL in the data set on Heliothis virescens, in the data set on Helicoverpa zea and in the data set with Manduca sexta were 32%, 13.5% and 12.5%, respectively. Moreover, the DC50 in the data set with Spodoptera frugiperda [1] was 81.9 µg/mL (≈ 151 µM).
With `CCOC(=O)[C@@H]1[C@@H]2CC3=C4CC(=O)O[C@@H](c5ccoc5)[C@]4(C)CC[C@@H]3[C@@](C)(C2=O)[C@@H]([C@@H](O)C(=O)OC)C1(C)C` [3-O-PROPIONYLSWIETENOLIDE], the inhibition of growth at 250 µg/mL was 41.7% in the data set on Heliothis virescens, 16.6% with Helicoverpa zea and 18.3% in the data set on Manduca sexta. This compound also gave a DC50 in the data set on Spodoptera frugiperda [1] of 53.8 µg/mL (≈ 99.1 µM).
Consider `C/C=C(\C)OC(=O)[C@@H]1[C@@H]2C=C3[C@@H]4CC(=O)O[C@@H](c5ccoc5)[C@]4(C)CC[C@@H]3[C@@](C)(C2=O)[C@@H]([C@H](C(=O)OC)C(=O)Oc2ccccc2)C1(C)C` [6-O-BENZOYLSWIETENINE], for which the inhibition of growth at 250 µg/mL turned out to be 28.7% with Heliothis virescens, 10.2% with Helicoverpa zea and 32.8% in the data set on Manduca sexta. The DC50 in the data set with Spodoptera frugiperda [1] was found to be 406 µg/mL (≈ 604 µM).
`COC(=O)[C@H](C(=O)Oc1ccccc1)[C@H]1C(C)(C)[C@H](O)[C@@H]2CC3=C4CC(=O)O[C@@H](c5ccoc5)[C@]4(C)CC[C@@H]3[C@@]1(C)C2=O` [6-O-BENZOYLSWIETENOLIDE]: the values for the inhibition of growth at 250 µg/mL with Heliothis virescens, with Helicoverpa zea and in the data set with Manduca sexta were 27.1%, 39.5% and 43.8%, respectively. In the data set on Spodoptera frugiperda [1], this compound registered a DC50 of 73.2 µg/mL (≈ 124 µM).
Take `CCOC(=O)[C@@H](C(=O)OC)[C@H]1C(C)(C)[C@H](O)[C@@H]2CC3=C4CC(=O)O[C@@H](c5ccoc5)[C@]4(C)CC[C@@H]3[C@@]1(C)C2=O` [6-O-PROPIONYLSWIETENOLIDE]: the inhibition of growth at 250 µg/mL with Heliothis virescens stood at 62.6%; in the data set on Helicoverpa zea, 27.1%; in the data set with Manduca sexta, 21.4%. In the data set on Spodoptera frugiperda [1], this compound gave a DC50 of 57.1 µg/mL (≈ 105 µM).
On the same counts, the results for `CC1(C)[C@H]([C@@H](O)C(=O)O)[C@]2(C)C(=O)[C@@](O)(C=C3[C@@H]4CC(=O)O[C@@H](c5ccoc5)[C@]4(C)CC[C@@H]32)[C@H]1O` [DEMETHYL-3-DETIGLOYL-2-HYDROXYISOSWIETENINE] are 24.5%, 11.1%, 13.2% and more than 10000 µg/mL.
With `CC1(C)[C@H](O)[C@@H]2C=C3[C@@H]4CC(=O)O[C@@H](c5ccoc5)[C@]4(C)CC[C@@H]3[C@@](C)(C2=O)[C@H]1[C@@H](O)C(=O)O` [DEMETHYL-3-DETIGLOYLISOSWIETENINE], the inhibition of growth at 250 µg/mL came to 10.2% in the data set on Heliothis virescens, 21.6% in the data set on Helicoverpa zea and 14.1% in the data set with Manduca sexta. Also, in the data set on Spodoptera frugiperda [1], the DC50 stood at 214 µg/mL (≈ 454 µM).
On to `CC1(C)[C@H](O)[C@@H]2CC3=C4CC(=O)O[C@@H](c5ccoc5)[C@]4(C)CC[C@@H]3[C@@](C)(C2=O)[C@H]1[C@@H](O)C(=O)OO` [DEMETHYLISOSWIETENOLIDE], for which the inhibition of growth at 250 µg/mL came out at 32.6% with Heliothis virescens, 24% in the data set with Helicoverpa zea and 9.01% in the data set with Manduca sexta. The compound further had a DC50 in the data set with Spodoptera frugiperda [1] of 254 µg/mL (≈ 520 µM).
With `CCOC(=O)[C@@H](C(=O)OC)[C@H]1C(C)(C)[C@H](C(=O)OCC)[C@@H]2CC3=C4CC(=O)O[C@@H](c5ccoc5)[C@]4(C)CC[C@@H]3[C@@]1(C)C2=O` [O,O-DIPROPIONYLSWIETENOLIDE], the figures for the inhibition of growth at 250 µg/mL in the data set with Heliothis virescens, in the data set on Helicoverpa zea and in the data set with Manduca sexta were 52.7%, 20.8% and 32.7%, respectively. The DC50 in the data set with Spodoptera frugiperda [1] turned out to be 45.5 µg/mL (≈ 76 µM).
In the case of `C/C=C(\C)OC(=O)[C@H]1[C@@H]2C(=O)[C@](C)([C@H]3CC[C@]4(C)[C@@H](CC(=O)O[C@H]4c4ccoc4)[C@]34O[C@@H]24)[C@@H](C(O)C(=O)OC)C1(C)C` (stereo partly specified) [SWIETEMAHONIN G], the inhibition of growth at 250 µg/mL in the data set with Heliothis virescens was 44.3%; with Helicoverpa zea, 48.1%; with Manduca sexta it was 32.8%. In the data set on Spodoptera frugiperda [1], the DC50 is 13.8 µg/mL (≈ 23.6 µM).
